In US6362369B1, “Phthalic acid diamide derivatives fluorine-containing aniline compounds as starting material, agricultural and horticultural insecticides, and a method for application of the insecticides” (Nihon Nohyaku Co., Ltd., priority 1997, dated 2002):

Tests used:
Assay type in all cases: in vivo
[1] = tested on: diamondback moth (Plutella xylostella); assay: Insecticidal effect on diamondback moth (Test Example 1); settings: for Insecticidal effect, Test Example 1 / Insecticidal effect (Test Example 1), judged from mortality: diamondback moth; for Insecticidal effect on diamondback moth (Test Example 1), judged grade: mortality judged according to the criterion shown in Test Example 1; for Insecticidal effect (Test Example 1), judged from mortality: judged by the criterion of Test Example 1
Procedure, shortened: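 Triplicate groups of 10 insects: eggs laid on Chinese cabbage seedling by adults, seedling immersed then air-dried, kept at 25° C. Day-6 hatch counts gave mortality, rated by criterion.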

[2] = tested on: common cutworm (Spodoptera Litura); assay: Insecticidal effect on common cutworm (Test Example 2); settings: 500 ppm, 25° C.; for Insecticidal effect, Test Example 2: cabbage leaf immersed; for Insecticidal effect, Test Example 2 / Insecticidal effect on common cutworm (Test Example 2), judged grade: eight days after inoculation; for Insecticidal effect on common cutworm (Test Example 2), judged grade / Insecticidal effect (Test Example 2), judged from mortality: cabbage leaf dip; for Insecticidal effect on common cutworm (Test Example 2), judged grade: second-instar larvae; for Insecticidal effect (Test Example 2), judged from mortality: 8 days after inoculation
Procedure, shortened: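 Insecticidal effect was rated from percent mortality of second-instar larvae exposed to air-dried treatment at 25° C for 8 days.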

[3] = tested on: rice leafroller (Cnaphalocrocis medinalis); assay: Insecticidal effect on rice leafroller (Test Example 3); settings: 500 ppm, 25° C., humidity 70%; for Insecticidal effect, Test Example 3: rice lamina immersed; for Insecticidal effect, Test Example 3 / Insecticidal effect on rice leafroller (Test Example 3), judged grade: four days after inoculation; for Insecticidal effect on rice leafroller (Test Example 3), judged grade / Insecticidal effect (Test Example 3), judged from mortality: rice lamina dip; for Insecticidal effect on rice leafroller (Test Example 3), judged grade: third-instar larvae; for Insecticidal effect (Test Example 3), judged from mortality: 4 days after inoculation
Procedure, shortened: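 Insecticidal effect is judged by a predefined criterion from dead/alive counts four days after infesting air-dried lamina with third-instar larvae, kept on moistened filter paper at 25° C, 70% humidity.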

[4] = mortality judged by criterion of Test Example 1
[5] = common cutworm second-instar larvae
[6] = rice leafroller third-instar larvae
[7] = judged by the mortality criterion of Test Example 1
[8] = second-instar larvae of common cutworm
[9] = third-instar larvae of rice leafroller

CCNC(=O)c1c(I)cccc1C(=O)Nc1ccc(OC(F)(F)C(F)F)cc1C [compound 1056]
Insecticidal effect, Test Example 1 [1, 4]: A (100) | Insecticidal effect, Test Example 2 [2, 5]: A (100) | Insecticidal effect, Test Example 3 [3, 6]: A (100)

Cc1cc(C(F)(F)C(F)(F)F)ccc1NC(=O)c1cccc(I)c1C(=O)NCC(C)C [compound 1005]
Insecticidal effect, Test Example 1 [1, 4]: A (100) | Insecticidal effect, Test Example 2 [2, 5]: A (100) | Insecticidal effect, Test Example 3 [3, 6]: A (100)

CCc1cccc(C(=O)NC(C)C)c1C(=O)Nc1ccc(Cl)cc1C [compound 753]
Insecticidal effect on diamondback moth (Test Example 1), judged grade [1]: A (100) | Insecticidal effect on common cutworm (Test Example 2), judged grade [2]: A (100) | Insecticidal effect on rice leafroller (Test Example 3), judged grade [3]: D (79-50)

CCN(CC)C(=O)c1c(I)cccc1C(=O)Nc1ccc2c(c1)OC(F)C(F)(F)O2 (stereo not drawn) [compound 1151]
Insecticidal effect, Test Example 1 [1, 4]: A (100) | Insecticidal effect, Test Example 2 [2, 5]: A (100) | Insecticidal effect, Test Example 3 [3, 6]: A (100)

Cc1cc(OC(F)(F)C(F)Cl)ccc1NC(=O)c1cccc(F)c1C(=O)NC(C)C (stereo not drawn) [compound 513]
Insecticidal effect on diamondback moth (Test Example 1), judged grade [1]: A (100) | Insecticidal effect on common cutworm (Test Example 2), judged grade [2]: A (100) | Insecticidal effect on rice leafroller (Test Example 3), judged grade [3]: A (100)

Cc1cc(I)ccc1NC(=O)c1cccc(Br)c1C(=O)NC(C)C [compound 274]
Insecticidal effect, Test Example 1 [1, 7]: A (100) | Insecticidal effect, Test Example 2 [2, 8]: A (100) | Insecticidal effect, Test Example 3 [3, 9]: A (100)

Cc1cc(OC(F)(F)C(F)F)ccc1NC(=O)c1cccc(Cl)c1C(=O)NC(C)C [Compound No. 141, 3-chloro-N^1-[4-(1,1,2,2-tetrafluoroethoxy)-2-methylphenyl]-N^2-isopropylphthalic acid diamide]
Insecticidal effect, Test Example 1 [1, 7]: A (100) | Insecticidal effect, Test Example 2 [2, 8]: A (100) | Insecticidal effect, Test Example 3 [3, 9]: A (100)

Cc1cc(OC(F)(F)F)ccc1NC(=O)c1ccc(I)cc1C(=O)NC(C)C [compound 1246]
Insecticidal effect, Test Example 1 [1, 4]: A (100) | Insecticidal effect, Test Example 2 [2, 5]: A (100) | Insecticidal effect, Test Example 3 [3, 6]: A (100)

CC(C)NC(=O)c1c(Cl)cccc1C(=O)Nc1ccc(OC(F)(F)F)cc1Br [compound 136]
Insecticidal effect, Test Example 1 [1, 7]: A (100) | Insecticidal effect, Test Example 2 [2, 8]: A (100) | Insecticidal effect, Test Example 3 [3, 9]: A (100)

Cc1cc(Oc2ccc(C(F)(F)F)cn2)ccc1NC(=O)c1cccc(Cl)c1C(=O)NC(C)C [compound 158]
Insecticidal effect, Test Example 1 [1, 7]: A (100) | Insecticidal effect, Test Example 2 [2, 8]: A (100) | Insecticidal effect, Test Example 3 [3, 9]: A (100)

CC(C)(C)NC(=O)c1c(I)cccc1C(=O)Nc1ccc(C(F)(F)C(F)(F)F)cc1Cl [compound 1428]
Insecticidal effect, Test Example 1 [1, 4]: A (100) | Insecticidal effect, Test Example 2 [2, 5]: A (100) | Insecticidal effect, Test Example 3 [3, 6]: A (100)

Cc1ccc(NC(=O)c2cccc(Br)c2C(=O)NC(C)C)c(C)c1Cl [compound 270]
Insecticidal effect, Test Example 1 [1, 7]: A (100) | Insecticidal effect, Test Example 2 [2, 8]: A (100) | Insecticidal effect, Test Example 3 [3, 9]: A (100)

Cc1cc(NC(=O)c2cccc(I)c2C(=O)NC(C)(C)C)ccc1C(F)(F)C(F)(F)F [compound 1552]
Insecticidal effect (Test Example 1), judged from mortality [1]: A (100) | Insecticidal effect (Test Example 2), judged from mortality [2, 8]: A (100) | Insecticidal effect (Test Example 3), judged from mortality [3, 9]: A (100)

Cc1cc(C(F)(F)C(F)(F)F)ccc1NC(=O)c1cccc(I)c1C(=O)NC(C)(C)CCl [compound 1646]
Insecticidal effect (Test Example 1), judged from mortality [1]: A (100) | Insecticidal effect (Test Example 2), judged from mortality [2, 8]: A (100) | Insecticidal effect (Test Example 3), judged from mortality [3, 9]: A (100)

CCN(CC)C(=O)c1c(Cl)cccc1C(=O)Nc1ccc(OC(F)(F)F)cc1C [compound 1536]
Insecticidal effect (Test Example 1), judged from mortality [1]: A (100) | Insecticidal effect (Test Example 2), judged from mortality [2, 8]: A (100) | Insecticidal effect (Test Example 3), judged from mortality [3, 9]: A (100)

Cc1cc(OC(F)(F)C(F)(Cl)Cl)ccc1NC(=O)c1c(F)cccc1C(=O)NC(C)C [compound 553]
Insecticidal effect on diamondback moth (Test Example 1), judged grade [1]: A (100) | Insecticidal effect on common cutworm (Test Example 2), judged grade [2]: C (89-80) | Insecticidal effect on rice leafroller (Test Example 3), judged grade [3]: A (100)

Cc1cc(C(F)(F)C(F)(F)F)ccc1NC(=O)c1cccc(Cl)c1C(=O)NC(C)(C)C#Cc1cccs1 [compound 1479]
Insecticidal effect (Test Example 1), judged from mortality [1]: A (100) | Insecticidal effect (Test Example 2), judged from mortality [2, 8]: A (100) | Insecticidal effect (Test Example 3), judged from mortality [3, 9]: A (100)

Cc1cc(Oc2ncc(C(F)(F)F)cc2Cl)ccc1NC(=O)c1cccc(F)c1C(=O)NC(C)C [compound 524]
Insecticidal effect on diamondback moth (Test Example 1), judged grade [1]: A (100) | Insecticidal effect on common cutworm (Test Example 2), judged grade [2]: A (100) | Insecticidal effect on rice leafroller (Test Example 3), judged grade [3]: A (100)

Cc1cc(Oc2ccc(C(F)(F)F)cn2)ccc1NC(=O)c1cccc(I)c1C(=O)NC(C)C [compound 399]
Insecticidal effect, Test Example 1 [1, 7]: A (100) | Insecticidal effect, Test Example 2 [2, 8]: A (100) | Insecticidal effect, Test Example 3 [3, 9]: A (100)

CC(C)NC(=O)c1c(F)cccc1C(=O)Nc1ccc(OC(F)(F)F)cc1Cl [compound 508]
Insecticidal effect on diamondback moth (Test Example 1), judged grade [1]: A (100) | Insecticidal effect on common cutworm (Test Example 2), judged grade [2]: B (99-90) | Insecticidal effect on rice leafroller (Test Example 3), judged grade [3]: A (100)

CCC(C)(C)NC(=O)c1c(F)cccc1C(=O)Nc1ccc(OC(F)(F)F)cc1C [compound 1154]
Insecticidal effect, Test Example 1 [1, 4]: A (100) | Insecticidal effect, Test Example 2 [2, 5]: C (89-80) | Insecticidal effect, Test Example 3 [3, 6]: A (100)

CCc1cc(I)ccc1NC(=O)c1cccc(I)c1C(=O)NC(C)C [compound 951]
Insecticidal effect, Test Example 1 [1, 4]: A (100) | Insecticidal effect, Test Example 2 [2, 5]: A (100) | Insecticidal effect, Test Example 3 [3, 6]: A (100)

Cc1cc(OC(F)(F)C(F)(F)Br)ccc1NC(=O)c1cccc(F)c1C(=O)NC(C)C [compound 503]
Insecticidal effect on diamondback moth (Test Example 1), judged grade [1]: A (100) | Insecticidal effect on common cutworm (Test Example 2), judged grade [2]: B (99-90) | Insecticidal effect on rice leafroller (Test Example 3), judged grade [3]: A (100)

COc1ccc(NC(=O)c2cccc(I)c2C(=O)NC(C)C)c(C)c1C [compound 378]
Insecticidal effect, Test Example 1 [1, 7]: A (100) | Insecticidal effect, Test Example 2 [2, 8]: D (79-50) | Insecticidal effect, Test Example 3 [3, 9]: A (100)

Cc1cc(OC(F)(F)C(F)F)c(Cl)cc1NC(=O)c1c(Cl)cccc1C(=O)NC(C)C [compound 246]
Insecticidal effect, Test Example 1 [1, 7]: A (100) | Insecticidal effect, Test Example 2 [2, 8]: B (99-90) | Insecticidal effect, Test Example 3 [3, 9]: B (99-90)

CC(C)NC(=O)c1c(Cl)cccc1C(=O)Nc1ccc(Oc2ccc(C(F)(F)F)cc2Cl)cc1F [compound 903]
Insecticidal effect on diamondback moth (Test Example 1), judged grade [1]: A (100) | Insecticidal effect on common cutworm (Test Example 2), judged grade [2]: A (100) | Insecticidal effect on rice leafroller (Test Example 3), judged grade [3]: A (100)

Cc1cc(C(F)(F)C(F)(F)F)ccc1NC(=O)c1cccc(Cl)c1C(=O)NC(C)(C)C#Cc1ccc(F)cc1F [compound 1650]
Insecticidal effect (Test Example 1), judged from mortality [1]: A (100) | Insecticidal effect (Test Example 2), judged from mortality [2, 8]: A (100) | Insecticidal effect (Test Example 3), judged from mortality [3, 9]: A (100)

CC(C)NC(=O)c1c(I)cccc1C(=O)Nc1ccc(SC(F)(F)Br)cc1 [compound 1112]
Insecticidal effect, Test Example 1 [1, 4]: A (100) | Insecticidal effect, Test Example 2 [2, 5]: A (100) | Insecticidal effect, Test Example 3 [3, 6]: A (100)

Cc1cc(Oc2ccc(C(F)(F)F)cn2)ccc1NC(=O)c1cccc(F)c1C(=O)NC(C)C [compound 523]
Insecticidal effect on diamondback moth (Test Example 1), judged grade [1]: A (100) | Insecticidal effect on common cutworm (Test Example 2), judged grade [2]: A (100) | Insecticidal effect on rice leafroller (Test Example 3), judged grade [3]: A (100)

CSc1cccc(C(=O)Nc2cccc(Cl)c2C)c1C(=O)NC(C)C [compound 780]
Insecticidal effect on diamondback moth (Test Example 1), judged grade [1]: A (100) | Insecticidal effect on common cutworm (Test Example 2), judged grade [2]: A (100) | Insecticidal effect on rice leafroller (Test Example 3), judged grade [3]: A (100)

Cc1cc(C(F)(F)C(F)(F)F)ccc1NC(=O)c1cccc(F)c1C(=O)NC(C)C [compound 495]
Insecticidal effect on diamondback moth (Test Example 1), judged grade [1]: A (100) | Insecticidal effect on common cutworm (Test Example 2), judged grade [2]: A (100) | Insecticidal effect on rice leafroller (Test Example 3), judged grade [3]: A (100)

CC(=O)c1ccc(NC(=O)c2cccc(Cl)c2C(=O)NC(C)C)cc1 [compound 109]
Insecticidal effect, Test Example 1 [1, 7]: A (100) | Insecticidal effect, Test Example 2 [2, 8]: A (100) | Insecticidal effect, Test Example 3 [3, 9]: C (89-80)

CCN(CC)C(=O)c1c(I)cccc1C(=O)Nc1ccc2c(c1)OC(F)(F)O2 [compound 1129]
Insecticidal effect, Test Example 1 [1, 4]: A (100) | Insecticidal effect, Test Example 2 [2, 5]: A (100) | Insecticidal effect, Test Example 3 [3, 6]: A (100)

Cc1cc(Sc2ccc(Cl)cc2)ccc1NC(=O)c1cccc([N+](=O)[O-])c1C(=O)NC(C)C [compound 727]
Insecticidal effect on diamondback moth (Test Example 1), judged grade [1]: A (100) | Insecticidal effect on common cutworm (Test Example 2), judged grade [2]: B (99-90) | Insecticidal effect on rice leafroller (Test Example 3), judged grade [3]: A (100)

Cc1c(F)cccc1NC(=O)c1cccc([N+](=O)[O-])c1C(=O)NC(C)C [compound 674]
Insecticidal effect on diamondback moth (Test Example 1), judged grade [1]: A (100) | Insecticidal effect on common cutworm (Test Example 2), judged grade [2]: D (79-50) | Insecticidal effect on rice leafroller (Test Example 3), judged grade [3]: A (100)
